Assay results from PubChem BioAssay (NCI).
Several values for one entry are separate records, joined by “and”; a condition that tells them apart may be missing. Equal entries are not always repeated.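 48-hour exposure; five concentrations; linearly interpolated endpoints. GI50 is the concentration that inhibits growth by half. TGI marks complete inhibition of growth.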

Experiments:
Experiment in all cases: inhibition of tumour cell growth, NCI panel, 48 h
RXF 393 renal = system: RXF 393 renal
ACHN renal = system: ACHN renal
A498 renal = system: A498 renal
UACC-62 melanoma = system: UACC-62 melanoma
MOLT-4 leukemia = system: MOLT-4 leukemia
EKVX NSCLC = system: EKVX NSCLC
DU-145 prostate = system: DU-145 prostate
A549 NSCLC = system: A549 NSCLC
HOP-92 NSCLC = system: HOP-92 NSCLC
HT29 colon = system: HT29 colon

Structure (SMILES)	TGI (RXF 393 renal)	TGI (ACHN renal)	TGI (A498 renal)	TGI (UACC-62 melanoma)	TGI (MOLT-4 leukemia)	TGI (EKVX NSCLC)	TGI (DU-145 prostate)	TGI (A549 NSCLC)	TGI (HOP-92 NSCLC)	TGI (HT29 colon)	GI50 (RXF 393 renal)	GI50 (ACHN renal)	GI50 (A498 renal)	GI50 (UACC-62 melanoma)	GI50 (MOLT-4 leukemia)	GI50 (EKVX NSCLC)	GI50 (DU-145 prostate)	GI50 (A549 NSCLC)	GI50 (HOP-92 NSCLC)	GI50 (HT29 colon)
COC1OC(CBr)C(OC(c2ccccc2)(c2ccccc2)c2ccccc2)C(OC(c2ccccc2)(c2ccccc2)c2ccccc2)C1OC(c1ccccc1)(c1ccccc1)c1ccccc1 (stereo not given)	> 100 µM	> 100 µM	> 100 µM	> 100 µM	> 100 µM	70.2 µM	> 100 µM	> 100 µM	52.4 µM	> 100 µM	–	–	–	–	–	–	–	–	–	–
O=c1ccccc(-c2ccc(-c3ccco3)cc2)c1O	17.2 µM	12 µM	25.9 µM	4.14 µM	51.5 µM	7.9 µM	> 100 µM	47.5 µM	39.8 µM	65.6 µM	951 nM	437 nM	3460 nM	588 nM	0.501 µM	406 nM	967 nM	1.39 µM	2050 nM	1700 nM
C#Cc1cccc(Nc2ncnc3ccc(-c4cnc(Cl)c(NS(C)(=O)=O)c4)cc23)c1	0.996 µM	> 100 µM	0.254 µM	1.07 µM	1.53 µM	1.87 µM	6.99 µM	4.83 µM	0.835 µM	–	218 nM	442 nM	33.4 nM	149 nM	0.244 µM	253 nM	434 nM	0.725 µM	78 nM	404 nM
c1ccc(/N=C2\c3ccccc3CN2c2ccccn2)nc1	> 100 µM	> 100 µM	> 100 µM	> 100 µM	> 100 µM	> 100 µM	> 100 µM	> 100 µM	72.7 µM	> 100 µM	–	–	–	–	–	–	–	–	–	–
O=C(Nc1ccc(Cl)cc1)c1cc2cc(F)ccc2cc1O	16.1 µM	7.07 µM	2.74 µM	23.6 µM	16.4 µM	22.3 µM	> 100 µM	> 100 µM	0.809 µM	40 µM	3000 nM	1670 nM	553 nM	622 nM	3.24 µM	2620 nM	2180 nM	2.5 µM	288 nM	3670 nM
O=C1CCC2=C3C4CCCCC4C(=O)C4CCCC(OC2C1)C34 (stereo not given)	1.79 µM	–	> 63.1 µM	4.32 µM	5.66 µM	> 100 µM	2.1 µM	13.2 µM	8.95 µM	> 100 µM	605 nM	382 nM	31800 nM	1690 nM	0.457 µM	12600 nM	357 nM	2.57 µM	2430 nM	8280 nM
CC1OC(O[C@H]2/C=C/C=C/C=C/C=C/C=C/C=C/C=C/[C@H](C)[C@@H](O)[C@@H](C)[C@H](C)OC(=O)C[C@H](O)C[C@H](O)CC[C@@H](O)[C@H](O)C[C@H](O)C[C@]3(O)C[C@H](O)[C@@H](C(=O)O)[C@H](C2)O3)C(O)C(N)C1O (stereo not given in full)	18.2 µM	20.5 µM	25 µM	43.9 µM	75.4 µM	27.8 µM	39.2 µM	34.9 µM	52.9 µM	56.4 µM	–	6470 nM	10400 nM	21800 nM	29.2 µM	11100 nM	12700 nM	9.72 µM	–	–
O=C(O[C@H]1CN[C@H](C#Cc2cc3ncnc(Nc4ccc(OCc5cccc(F)c5)c(Cl)c4)c3s2)C1)N1CCOCC1	> 16.6 µM	> 25 µM	8.21 µM	> 25 µM	23.2 µM	24.2 µM	> 25 µM	> 25 µM	9.96 µM	11.4 µM	5850 nM	4270 nM	1760 nM	13400 nM	6 µM	600 nM	5960 nM	6 µM	1450 nM	5700 nM
NCC1OC(n2cnc3c(=O)[nH]c(N)nc32)C(O)C1O (stereo not given)	> 100 µM	> 100 µM	> 100 µM	> 100 µM	> 100 µM	> 100 µM	> 100 µM	> 100 µM	> 100 µM	> 100 µM	–	–	–	–	–	–	–	–	–	–
COc1cc2c(Nc3ccc(Br)cc3F)ncnc2cc1OCC1CCN(C)CC1	4.77 µM and 8.32 µM	11.4 µM and > 10 µM	4.36 µM and > 10 µM	4.03 µM and > 10 µM	15.5 µM and > 10 µM	10.3 µM and > 10 µM	15.1 µM and > 10 µM	15.9 µM and > 10 µM	4.07 µM and 6.91 µM	10.8 µM and > 10 µM	1440 nM and 1290 nM	471 nM and 556 nM	712 nM and 2030 nM	1800 nM and 2790 nM	3.97 µM and 9.42 µM	286 nM and 401 nM	1310 nM and 3980 nM	3.32 µM and 4.63 µM	527 nM and 454 nM	2380 nM and 3390 nM
O=C1CC2C(=O)C1C(C(=O)O)C2C(=O)O (stereo not given)	> 100 µM	> 100 µM	> 100 µM	> 100 µM	> 100 µM	> 100 µM	> 100 µM	> 100 µM	> 100 µM	> 100 µM	–	–	–	–	–	–	–	–	–	–
COc1ccc(-c2nc(N)c3ncn(C4OC(CO)C(O)C4O)c3n2)cc1 (stereo not given)	> 100 µM	> 100 µM	> 100 µM	> 100 µM	> 100 µM	> 100 µM	> 100 µM	> 100 µM	> 100 µM	> 100 µM	–	–	–	–	–	–	–	–	–	–
CCC(c1ccc(OC)cc1)C(CC)c1ccc(O)c(CN2CCCC2)c1 (stereo not given)	7.55 µM	18.5 µM	11.1 µM	4.97 µM	6.77 µM	19.3 µM	19.1 µM	13.8 µM	3.58 µM	5.78 µM	2810 nM	4570 nM	2510 nM	2070 nM	2.54 µM	5070 nM	5800 nM	3.73 µM	1570 nM	2180 nM
